In patent US4298739A, “Novel carbostyril derivatives” (priority 1977, dated 1981):

Legend:
[1] = target: T1, cyclic AMP phosphodiesterase (Oryctolagus cuniculus, UniProt G1ST54); experiment: Obstructive action against cyclic AMP phosphodiesterase; format: biochemical, rabbit; details: 1.0 μmol cyclic AMP, pH 8.0, 30° C., read-out: phosphodiesterase obstruction rate
T1 construct: the supernatant was collected to use it as a crude enzyme solution; from tissue; host or cells: rabbit platelets (from platelet-rich plasma), 100,000 xg supernatant, DEAE-cellulose fraction
T1 sequence (G1ST54 1-1128): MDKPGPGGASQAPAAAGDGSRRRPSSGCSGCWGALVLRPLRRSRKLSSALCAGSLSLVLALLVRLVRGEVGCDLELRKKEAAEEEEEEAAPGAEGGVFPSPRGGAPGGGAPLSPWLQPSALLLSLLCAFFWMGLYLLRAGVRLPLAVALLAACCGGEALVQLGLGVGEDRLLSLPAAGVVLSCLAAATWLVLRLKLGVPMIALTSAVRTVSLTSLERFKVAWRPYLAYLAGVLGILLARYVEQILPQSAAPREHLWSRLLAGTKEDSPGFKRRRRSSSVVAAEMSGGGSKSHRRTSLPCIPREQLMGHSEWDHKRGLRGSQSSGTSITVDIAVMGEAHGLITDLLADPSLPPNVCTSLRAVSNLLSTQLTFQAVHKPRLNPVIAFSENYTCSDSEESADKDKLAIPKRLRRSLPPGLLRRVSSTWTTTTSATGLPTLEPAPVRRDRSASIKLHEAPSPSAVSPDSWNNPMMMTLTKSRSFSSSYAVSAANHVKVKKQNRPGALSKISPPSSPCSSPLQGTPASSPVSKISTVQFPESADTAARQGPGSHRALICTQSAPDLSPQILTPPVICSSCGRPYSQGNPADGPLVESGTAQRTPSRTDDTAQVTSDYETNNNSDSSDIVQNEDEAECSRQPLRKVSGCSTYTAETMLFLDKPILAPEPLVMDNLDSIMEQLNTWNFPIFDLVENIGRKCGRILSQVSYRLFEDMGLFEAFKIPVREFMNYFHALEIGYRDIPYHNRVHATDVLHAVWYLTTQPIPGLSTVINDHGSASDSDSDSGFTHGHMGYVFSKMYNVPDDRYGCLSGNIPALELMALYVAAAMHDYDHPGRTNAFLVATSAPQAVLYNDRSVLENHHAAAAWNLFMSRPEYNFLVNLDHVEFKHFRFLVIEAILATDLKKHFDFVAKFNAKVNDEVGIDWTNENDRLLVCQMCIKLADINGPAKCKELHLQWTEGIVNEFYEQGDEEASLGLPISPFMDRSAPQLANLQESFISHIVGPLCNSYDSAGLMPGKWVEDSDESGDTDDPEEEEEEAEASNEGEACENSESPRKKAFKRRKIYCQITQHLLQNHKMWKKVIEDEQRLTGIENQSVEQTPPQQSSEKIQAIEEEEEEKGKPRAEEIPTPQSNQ
Procedure: The obstructive action against cyclic AMP phosphodiesterase was measured according to the activity measuring method described in "Biochimica et Biophysica Acta", Vol. 429, pp. 485-497 (1976) and "Biochemical Medicine", Vol. 10, pp. 301-311 (1974).
That is, for determining the obstructive activity against cyclic AMP phosphodiesterase, 10 ml of a solution obtained by adding 1 mmol of MgCl2 into 50 mmol of tris-hydrochloric acid buffer with pH 7.4 was added to the platelets obtained by further centrifuging the abovesaid rabbit PRP at 3,000 r.p.m. for 10 minutes, and the suspended platelets were ground by a Teflon potter type homogenizer. This was followed by two times of freezing and thawing treatment and 300-second fracturing with 200 watt supersonic waves. After additional 60-minute centrifugation with 100,000 xg, the supernatant was collected to use it as a crude enzyme solution.
10 Milliliters of this crude buffer solution was added to a 1.5×20 cm DEAE-cellulose column which has previously been buffered with 50 mmol of tris-acetate buffer (pH 6.0), followed by washing and elution with 30 ml of 50 mmol tris-acetate buffer, and this buffer solution was subjected to linear gradient elution with 0 to 0.5 moles of sodium acetate-tris-acetatebuffer. The flow rate was 0.5 ml/min, and 5 ml of each fraction was batched out. […] This fraction was used as cyclic AMP phosphodiesterase.
0.1 Milliliter of an aqueous solution of each test compound of a specified concentration was mixed with 40 mmol of tris-hydrochloric acid buffer (pH 8.0, containing 50 μg of cow serum albumin and 4 mmol of MgCl2) containing predetermined 1.0 μmol of cyclic AMP (tritium cyclic AMP), and 0.2 ml of this mixed solution was used as substrate solution.
0.2 Milliliter of the above-prepared cyclic AMP phosphodiesterase of a predetermined concentration was added to said substrate solution and the mixture was reaction at 30° C. for 20 minutes, producing tritium 5'-AMP from the tritium cyclic AMP.
The reaction system was then immersed in boiling water for 2 minutes to stop the reaction, and then this reaction solution was cooled in ice water and, for converting the produced tritium 5'-AMP into tritium adenosine, the solution was added with 0.05 ml (1 mg/ml) of snake poison as 5'-nucleotidase and reacted at 30° C. for 10 minutes. The whole amount of this reaction solution was then added to a cation exchange resin (AG 500 W×4, 200-400 meshes, manufactured by Bio-Rad Co., column size: 0.5×1.5 cm), and the produced tritium anodesine alone was allowed to combine, washed with 6 ml of distilled water and eluted with 1.5 ml of 3 N-ammonia water. The whole quantity of the elutant was added with 10 ml of a triton-toluene type scintillator and the produced tritium adenosine was measured by a liquid scintillation counter to determine the phosphodiesterase activity.
In this way, the phosphodiesterase activation value (Vs) of the test compounds of the respective concentrations was determined, and the phosphodiesterase obstruction rate (%) was determined from said activation value (Vs) and control value (Vc) (obtained from water not containing any test compound) from the following formula: [formula]

[2] = test system: rabbit platelet; experiment: Collagen-induced aggregation in rabbit platelets (AG-II Aggregometer); format: cell-based
Procedure, shortened: (§1)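 Rabbit citrated PRP, diluted with PPP to 300,000/mm^3 platelets for ADP or 450,000/mm^3 for collagen, was preincubated with compound 1 min at 37° C. before inducer was added. ADP at 7.5×10^-5 M or collagen supernatant in Auren Beronal buffer pH 7.35; transmittance change recorded, percent inhibition derived.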

[3] = test system: rabbit platelet; experiment: ADP-induced aggregation in rabbit platelets (AG-II Aggregometer); format: cell-based
Procedure, shortened: as §1

[4] = test system: Male mice; experiment: Acute toxicity test, oral administration to mice; format: in vivo
Procedure: The test compounds were administered orally to the mice and LD50 (mg/kg) of the compounds was determined.

Row | SMILES | inhibition at 100 µM ([1]; 10^-4 mole) [%] | inhibition at 10 µM ([1]; 10^-5 mole) [%] | inhibition at 1 µM ([1]; 10^-6 mole) [%] | inhibition at 0.1 µM ([1]; 10^-7 mole) [%] | Inhibition effect on collagen induced aggregation in rabbit platelet ([2]; 10^-4 mole) [%] | Inhibition effect on collagen induced aggregation in rabbit platelet ([2]; 10^-5 mole) [%] | Inhibition effect on ADP-induced aggregation in rabbit platelet ([3]; 10^-4 mole) [%] | Inhibition effect on ADP-induced aggregation in rabbit platelet ([3]; 10^-5 mole) [%] | LD50 [4] [mg]
1 | CC(C)Cn1c(=O)n(C)c(=O)c2[nH]cnc21 [1-Methyl-3-isobutylxanthine, 1-methyl-3-isobutylxanthine, reference compound] | 98.5 | 85.7 | 67.4 | 3.2 |  |  |  |  | 
2 | O=C1CCc2cc(OCCCC(=O)Nc3c(Cl)cccc3Cl)ccc2N1 [compound 21, 6-[3-(o,o-Dichloroanilinocarbonyl)propoxy]-3,4-dihydrocarbonstyril] |  |  |  |  | 95.1 | 27.6 | 36.8 | 5.3 | > 1000
